According to patent US9212182B2, “Bicyclic sulfonamide compounds as sodium channel inhibitors” (AMGEN INC., priority 2013, dated 2015):

Each compound was assayed against Nav 1.7 (Homo sapiens (Human), UniProt Q15858) (assay: in-vitro Nav 1.7 PX (IC50)). Conditions: not given.
Sequence of Nav 1.7 (Q15858 whole entry): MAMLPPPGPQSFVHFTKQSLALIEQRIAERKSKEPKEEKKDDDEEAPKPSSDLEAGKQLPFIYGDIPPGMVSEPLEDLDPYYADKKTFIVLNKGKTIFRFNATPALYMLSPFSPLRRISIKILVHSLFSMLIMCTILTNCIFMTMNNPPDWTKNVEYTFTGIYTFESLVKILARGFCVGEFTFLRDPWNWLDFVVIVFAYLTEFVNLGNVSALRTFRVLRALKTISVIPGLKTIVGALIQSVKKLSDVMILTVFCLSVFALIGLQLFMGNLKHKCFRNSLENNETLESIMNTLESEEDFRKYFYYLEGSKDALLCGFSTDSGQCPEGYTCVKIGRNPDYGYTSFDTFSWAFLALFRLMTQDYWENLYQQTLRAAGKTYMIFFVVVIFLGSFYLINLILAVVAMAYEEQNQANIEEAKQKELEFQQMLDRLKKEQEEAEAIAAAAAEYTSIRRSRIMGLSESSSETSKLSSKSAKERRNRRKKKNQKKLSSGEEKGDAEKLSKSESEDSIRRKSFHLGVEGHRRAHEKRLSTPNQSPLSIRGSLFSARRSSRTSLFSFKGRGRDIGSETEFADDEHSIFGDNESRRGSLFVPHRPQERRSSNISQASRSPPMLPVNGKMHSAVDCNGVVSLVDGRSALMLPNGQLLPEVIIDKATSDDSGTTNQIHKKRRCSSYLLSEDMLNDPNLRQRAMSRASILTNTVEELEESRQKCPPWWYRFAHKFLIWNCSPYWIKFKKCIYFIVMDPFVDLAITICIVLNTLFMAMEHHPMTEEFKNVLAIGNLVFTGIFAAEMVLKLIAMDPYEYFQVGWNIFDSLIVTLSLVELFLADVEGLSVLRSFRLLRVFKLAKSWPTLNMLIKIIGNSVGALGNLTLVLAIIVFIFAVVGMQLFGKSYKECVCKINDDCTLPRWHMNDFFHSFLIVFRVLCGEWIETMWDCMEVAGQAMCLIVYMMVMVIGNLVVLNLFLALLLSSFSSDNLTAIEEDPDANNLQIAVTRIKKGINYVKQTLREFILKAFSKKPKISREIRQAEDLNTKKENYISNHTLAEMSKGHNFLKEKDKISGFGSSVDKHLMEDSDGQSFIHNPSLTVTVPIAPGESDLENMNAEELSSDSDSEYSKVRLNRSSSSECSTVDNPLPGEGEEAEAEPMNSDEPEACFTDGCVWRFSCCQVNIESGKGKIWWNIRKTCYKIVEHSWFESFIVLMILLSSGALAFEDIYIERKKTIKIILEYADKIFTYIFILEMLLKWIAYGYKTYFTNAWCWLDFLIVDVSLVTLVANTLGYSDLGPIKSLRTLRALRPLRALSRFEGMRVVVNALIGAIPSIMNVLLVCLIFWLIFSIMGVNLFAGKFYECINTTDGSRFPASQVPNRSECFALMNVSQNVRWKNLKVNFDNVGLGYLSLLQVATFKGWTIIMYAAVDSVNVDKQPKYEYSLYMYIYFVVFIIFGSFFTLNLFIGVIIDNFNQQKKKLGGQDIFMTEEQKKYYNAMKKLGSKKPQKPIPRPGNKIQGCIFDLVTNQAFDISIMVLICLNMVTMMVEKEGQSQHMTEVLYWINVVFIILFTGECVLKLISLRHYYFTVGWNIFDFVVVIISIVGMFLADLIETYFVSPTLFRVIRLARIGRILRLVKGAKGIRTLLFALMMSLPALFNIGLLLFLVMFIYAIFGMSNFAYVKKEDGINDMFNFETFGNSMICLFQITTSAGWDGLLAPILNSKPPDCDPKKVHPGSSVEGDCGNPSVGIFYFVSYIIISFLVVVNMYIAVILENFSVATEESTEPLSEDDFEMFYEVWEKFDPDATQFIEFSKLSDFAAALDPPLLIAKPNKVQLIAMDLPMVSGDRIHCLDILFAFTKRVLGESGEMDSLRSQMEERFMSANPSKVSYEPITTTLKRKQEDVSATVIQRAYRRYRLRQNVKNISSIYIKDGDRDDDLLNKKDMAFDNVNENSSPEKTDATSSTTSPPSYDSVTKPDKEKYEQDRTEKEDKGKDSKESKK
Type: cell-based
COc1cc(-c2cccc(Cl)c2)c(C)cc1-n1c(=O)ccc2cc(S(=O)(=O)Nc3ccon3)ccc21 (atropisomer, axis not shown; (M)) [Example 313, (M)-1-(3′-chloro-5-methoxy-2-methyl-4-biphenylyl)-N-3-isoxazolyl-2-oxo-1,2-dihydro-6-quinolinesulfonamide] showed an IC50 of 799 nM.
Compound COc1ccc(-c2cncc(Cl)c2)cc1-n1c(=O)ccc2cc(S(=O)(=O)Nc3ccon3)ccc21 [Example 494, 1-(5-(5-chloro-3-pyridinyl)-2-methoxyphenyl)-N-3-isoxazolyl-2-oxo-1,2-dihydro-6-quinolinesulfonamide] has an IC50 of 682 nM.
Compound COc1cc(-c2ccc(F)c(Cl)c2)ccc1-n1c(=O)ccc2cc(S(=O)(=O)Nc3ccon3)ccc21 (atropisomer, axis not shown; (P)) [Example 578, (P)-1-(3′-chloro-4′-fluoro-3-methoxy-4-biphenylyl)-N-3-isoxazolyl-2-oxo-1,2-dihydro-6-quinolinesulfonamide] has an IC50 of 16 nM.
With COc1cc(Br)c(F)cc1-n1c(=O)ccc2cc(S(=O)(=O)Nc3cc(OCC4CC4)ncn3)ccc21 (atropisomer, axis not shown; (P)) [Example 1183, (P)-1-(4-bromo-5-fluoro-2-methoxyphenyl)-N-(6-(cyclopropylmethoxy)-4-pyrimidinyl)-2-oxo-1,2-dihydro-6-quinolinesulfonamide] the IC50 was 2610 nM.
With COc1cc(-c2cc(F)cc(Cl)c2)c(F)cc1-n1c(=O)ccc2cc(S(=O)(=O)Nc3ccon3)ccc21 (atropisomer, axis not shown; (M)) [Example 478, (M)-1-(3′-chloro-2,5′-difluoro-5-methoxy-4-biphenylyl)-N-3-isoxazolyl-2-oxo-1,2-dihydro-6-quinolinesulfonamide] the IC50 was 816 nM.
O=c1ccc2cc(S(=O)(=O)Nc3ccon3)ccc2n1-c1ccc(C(F)(F)F)cc1-c1cn[nH]c1 [Example 347, M-1-(2-(1H-pyrazol-4-yl)-4-(trifluoromethyl)phenyl)-N-(isoxazol-3-yl)-2-oxo-1,2-dihydroquinoline-6-sulfonamide] showed an IC50 of 6600 nM.
Work on COc1ccc(-c2cccc(F)c2)cc1-n1c(=O)ccc2cc(S(=O)(=O)Nc3ccon3)ccc21 (atropisomer, axis not shown; (M)) [Example 484, (M)-1-(3′-fluoro-4-methoxy-3-biphenylyl)-N-3-isoxazolyl-2-oxo-1,2-dihydro-6-quinolinesulfonamide] yielded an IC50 of 32300 nM.
COc1cc(-c2ccc(F)c(F)c2)c(F)cc1-n1c(=O)cnc2cc(S(=O)(=O)Nc3ccon3)ccc21 [Example 1179, N-3-isoxazolyl-2-oxo-1-(2,3′,4′-trifluoro-5-methoxy-4-biphenylyl)-1,2-dihydro-6-quinoxalinesulfonamide] gave an IC50 of 62 nM.
With COc1cc(-c2cc(C)cc(Cl)c2)ccc1-n1c(=O)ccc2cc(S(=O)(=O)Nc3ccon3)ccc21 (atropisomer, axis not shown; (M)) [Example 586, (M)-1-(3′-chloro-3-methoxy-5′-methyl-4-biphenylyl)-N-3-isoxazolyl-2-oxo-1,2-dihydro-6-quinolinesulfonamide] the IC50 was greater than 1000 nM.
In the case of COc1cc(-c2cccc(Cl)c2)ccc1-n1c(=O)ccc2cc(S(=O)(=O)Nc3ccon3)ccc21 [Example 350, P-1-(3′-chloro-3-methoxy-[1,1′-biphenyl]-4-yl)-N-(isoxazol-3-yl)-2-oxo-1,2-dihydroquinoline-6-sulfonamide], the IC50 is reported as 26 nM.
With COc1ccc(-c2cc(F)cnc2OC)cc1-n1c(=O)ccc2cc(S(=O)(=O)Nc3ccon3)ccc21 [Example 488, 1-(5-(5-fluoro-2-methoxy-3-pyridinyl)-2-methoxyphenyl)-N-3-isoxazolyl-2-oxo-1,2-dihydro-6-quinolinesulfonamide] the IC50 was 299 nM.
COc1ccc(-c2cccnc2F)cc1-n1c(=O)ccc2cc(S(=O)(=O)Nc3ccon3)ccc21 [Example 495, 1-(5-(2-fluoro-3-pyridinyl)-2-methoxyphenyl)-N-3-isoxazolyl-2-oxo-1,2-dihydro-6-quinolinesulfonamide] gave an IC50 of 2450 nM.

Same assay, conditions: in-vitro Nav 1.7 PX data
COc1cc(C#CC2CCCC2)c(F)cc1-n1c(=O)ccc2cc(S(=O)(=O)Nc3ncccn3)ccc21 [Example 1134, 1-(4-(cyclopentylethynyl)-5-fluoro-2-methoxyphenyl)-2-oxo-N-2-pyrimidinyl-1,2-dihydro-6-quinolinesulfonamide] showed an IC50 of 26 nM.
In the case of COc1cc(-c2ccc(C)c(F)c2)c(F)cc1-n1c(=O)ccc2cc(S(=O)(=O)Nc3ncc(F)cn3)ccc21 [Example 1127, 1-(2,3′-difluoro-5-methoxy-4′-methyl-4-biphenylyl)-N-(5-fluoro-2-pyrimidinyl)-2-oxo-1,2-dihydro-6-quinolinesulfonamide], the IC50 is reported as 34 nM.
For COc1cc(-c2cccc(F)c2)ncc1-n1c(=O)ccc2cc(S(=O)(=O)Nc3ccon3)ccc21 (atropisomer, axis not shown; (P)) [Example 602, (P)-1-(6-(3-fluorophenyl)-4-methoxy-3-pyridinyl)-N-3-isoxazolyl-2-oxo-1,2-dihydro-6-quinolinesulfonamide], the IC50 was 709 nM.
Work on COc1nc(OCC2CC2)c(Cl)cc1-n1c(=O)ccc2cc(S(=O)(=O)Nc3ccon3)ccc21 [638/819, 1-(5-chloro-6-(cyclopropylmethoxy)-2-methoxy-3-pyridinyl)-N-3-isoxazolyl-2-oxo-1,2-dihydro-6-quinolinesulfonamide] yielded an IC50 of 825 nM.
With COc1cnc(-c2cc(F)cc(Cl)c2)cc1-n1c(=O)ccc2cc(S(=O)(=O)Nc3ccon3)ccc21 [Example 618, 1-(2-(3-chloro-5-fluorophenyl)-5-methoxy-4-pyridinyl)-N-3-isoxazolyl-2-oxo-1,2-dihydro-6-quinolinesulfonamide] the IC50 was 605 nM.
In the case of COc1cc(-c2cccc(F)c2)ncc1-n1c(=O)ccc2cc(S(=O)(=O)Nc3ccon3)ccc21 [Example 601, 1-(6-(3-fluorophenyl)-4-methoxy-3-pyridinyl)-N-3-isoxazolyl-2-oxo-1,2-dihydro-6-quinolinesulfonamide], the IC50 is reported as 1770 nM.
In the case of COc1ccc(-c2cc(F)cc(Cl)c2)cc1-n1c(=O)ccc2cc(S(=O)(=O)Nc3ccncn3)ccc21 [Example 610, 1-(3′-chloro-5′-fluoro-4-methoxy-3-biphenylyl)-2-oxo-N-4-pyrimidinyl-1,2-dihydro-6-quinolinesulfonamide], the IC50 is reported as 13 nM.
In the case of COc1cc(-c2cc(OC)c(-n3c(=O)ccc4cc(S(=O)(=O)Nc5ccon5)ccc43)cc2F)ccc1F [Example 713, 1-(2,4′-difluoro-3′,5-dimethoxy-4-biphenylyl)-N-3-isoxazolyl-2-oxo-1,2-dihydro-6-quinolinesulfonamide], the IC50 is reported as 15 nM.
Work on COc1cc(-c2cccc(C(F)(F)F)c2)ccc1-n1c(=O)ccc2cc(S(=O)(=O)Nc3cncc(C)n3)ccc21 [Example 950, 1-(3-methoxy-3′-(trifluoromethyl)-4-biphenylyl)-N-(6-methyl-2-pyrazinyl)-2-oxo-1,2-dihydro-6-quinolinesulfonamide] yielded an IC50 of 99 nM.
In the case of COc1cc(-c2cccnc2C)c(F)cc1-n1c(=O)ccc2cc(S(=O)(=O)Nc3ccon3)ccc21 [Example 737, 1-(5-fluoro-2-methoxy-4-(2-methyl-3-pyridinyl)phenyl)-N-3-isoxazolyl-2-oxo-1,2-dihydro-6-quinolinesulfonamide], the IC50 is reported as 1250 nM.
With COc1nc(OCC(F)(F)F)c(Cl)cc1-n1c(=O)ccc2cc(S(=O)(=O)Nc3ccon3)ccc21 [Example 833, 1-(5-chloro-2-methoxy-6-(2,2,2-trifluoroethoxy)-3-pyridinyl)-N-3-isoxazolyl-2-oxo-1,2-dihydro-6-quinolinesulfonamide] the IC50 was 565 nM.
COc1cc(-c2ccc(C)c(C)c2)ccc1-n1c(=O)ccc2cc(S(=O)(=O)Nc3ccon3)ccc21 [Example 812, N-3-isoxazolyl-1-(3-methoxy-3′,4′-dimethyl-4-biphenylyl)-2-oxo-1,2-dihydro-6-quinolinesulfonamide] was tested, and the IC50 was 73 nM.
With COc1cc(-c2ccc(Cl)c(C)c2)ccc1-n1c(=O)ccc2cc(S(=O)(=O)Nc3cnccn3)ccc21 [Example 659, 1-(4′-chloro-3-methoxy-3′-methyl-4-biphenylyl)-2-oxo-N-2-pyrazinyl-1,2-dihydro-6-quinolinesulfonamide] the IC50 was 35 nM.
Work on COc1cc(-c2ccc(Cl)cc2)c(F)cc1-n1c(=O)ccc2cc(S(=O)(=O)Nc3cccnn3)ccc21 [Example 746, 1-(4′-chloro-2-fluoro-5-methoxy-4-biphenylyl)-2-oxo-N-3-pyridazinyl-1,2-dihydro-6-quinolinesulfonamide] yielded an IC50 of 24 nM.
COc1cc(-c2ccc(C)c(F)c2)c(F)cc1-n1c(=O)ccc2cc(S(=O)(=O)Nc3cc(C)ncn3)ccc21 [Example 1129, 1-(2,3′-difluoro-5-methoxy-4′-methyl-4-biphenylyl)-N-(6-methyl-4-pyrimidinyl)-2-oxo-1,2-dihydro-6-quinolinesulfonamide] gave an IC50 of 80 nM.

Same assay, conditions: in-vitro Nav 1.7 PX data (PatchXpress)
COc1ccc(C)c(-c2ccc(-n3c(=O)ccc4cc(S(=O)(=O)Nc5ccon5)ccc43)c(OC)c2)c1 [Example 1037, 1-(3,5′-dimethoxy-2′-methyl-4-biphenylyl)-N-3-isoxazolyl-2-oxo-1,2-dihydro-6-quinolinesulfonamide] was tested, and the IC50 was 24 nM.
COc1cc(-c2ccc(F)cc2)ccc1-n1c(=O)ccc2cc(S(=O)(=O)Nc3ccon3)ccc21 [Example 1069, 1-(4′-fluoro-3-methoxy-4-biphenylyl)-N-3-isoxazolyl-2-oxo-1,2-dihydro-6-quinolinesulfonamide] gave an IC50 of 71 nM.

Same assay, conditions: in-vitro PatchXpress (PX)
For COc1cc(-c2cc(F)cc(F)c2F)c(F)cc1-n1c(=O)ccc2cc(S(=O)(=O)Nc3ccon3)ccc21 (atropisomer, axis not shown; (P)) [Example 514, (P)—N-3-isoxazolyl-2-oxo-1-(2,2′,3′,5′-tetrafluoro-5-methoxy-4-biphenylyl)-1,2-dihydro-6-quinolinesulfonamide], the IC50 was 18 nM.
Work on COc1cc(-c2cc(Cl)cc(C#N)c2)c(F)cc1-n1c(=O)ccc2cc(S(=O)(=O)Nc3ccon3)ccc21 (atropisomer, axis not shown; (M)) [Example 519, (M)-1-(3′-chloro-5′-cyano-2-fluoro-5-methoxy-4-biphenylyl)-N-3-isoxazolyl-2-oxo-1,2-dihydro-6-quinolinesulfonamide] yielded an IC50 of 16 nM.
